# Results taken from article PMC4646457 (PLoS ONE, 2015).
# Where two headings read alike, the source gives them in different places.
# Columns and labels:
# [1] = EGF10027 steady-state lapatinib concentrations in patient plasma and tumor; format: in vivo, human; settings: for concentration at 12 h / concentration at 24 h: female, human, oral; for concentration at 12 h: 500 mg
# HER2 = HER2 (Homo sapiens, UniProt P04626); test: Quantitative IHC of phosphorylated HER2 in patient tumor (EGF10027); format: in vivo; settings: for p-HER2 post-treatment OD: plasma […]
# HER2 phosphorylation = tested on: HER2 phosphorylation; design: method as in printed; settings: abstract, ref not given, cited from earlier work
# [2] = design: method as in EGF10027 protocol, CIB RM2000/00481/06; settings: mice, rats and dogs; ref EGF10027 protocol, CIB RM2000/00481/06; cited from earlier work
# plasma proteins = tested on: plasma proteins; design: method as in EGF10027 protocol, CIB RM2000/00481/06; settings: mouse, rat, dog, rabbit and human plasma, 1 to 100 µM; ref EGF10027 protocol, CIB RM2000/00481/06; cited from earlier work
# [3] = design: method as in EGF10027 protocol, CIB RM2000/00481/06; settings: ref EGF10027 protocol, CIB RM2000/00481/06, cited from earlier work
# CYP3A = tested on: CYP3A; design: method as in EGF10027 protocol, CIB RM2000/00481/06; settings: pregnane X receptor-screening assay; ref EGF10027 protocol, CIB RM2000/00481/06; cited from earlier work
# CYP3A4 = tested on: CYP3A4; design: method as in EGF10027 protocol, CIB RM2000/00481/06; settings: ref EGF10027 protocol, CIB RM2000/00481/06; cited from earlier work
# [4] = design: method as in EGF10027 protocol, CIB RM2000/00481/06; settings: Ames, CHO and human lymphocyte chromosome aberration, in vivo rat bone marrow; ref EGF10027 protocol, CIB RM2000/00481/06; cited from earlier work
# [5] = design: method as in study EGF10003; settings: ref study EGF10003, cited from earlier work
# [6] = cited from earlier work
# ErbB1 tyrosine kinase = settings: read-out: IC50, ErbB1 tyrosine kinase; in vitro kinase assay; ref EGF10027 protocol, CIB RM2000/00481/06; cited from earlier work
# ErbB2 tyrosine kinase = settings: read-out: IC50, ErbB2 tyrosine kinase; in vitro kinase assay; ref EGF10027 protocol, CIB RM2000/00481/06; cited from earlier work
# human CYP450 enzymes = settings: also CYP3A5, lesser extent CYP2C19; ref EGF10027 protocol, CIB RM2000/00481/06; cited from earlier work
# [7] = ref EGF10027 protocol, CIB RM2000/00481/06, cited from earlier work
# [8] = cited from earlier work; for frequency of achieving ≥75% inhibition of one of four key biomarkers (p-EGFR, p-ErbB2, p-ERK1/2, p-AKT): tumor
# [9] = cancer patients, once daily dosing up to 1800 mg, preliminary
# HER2, sequence (P04626 23-1255): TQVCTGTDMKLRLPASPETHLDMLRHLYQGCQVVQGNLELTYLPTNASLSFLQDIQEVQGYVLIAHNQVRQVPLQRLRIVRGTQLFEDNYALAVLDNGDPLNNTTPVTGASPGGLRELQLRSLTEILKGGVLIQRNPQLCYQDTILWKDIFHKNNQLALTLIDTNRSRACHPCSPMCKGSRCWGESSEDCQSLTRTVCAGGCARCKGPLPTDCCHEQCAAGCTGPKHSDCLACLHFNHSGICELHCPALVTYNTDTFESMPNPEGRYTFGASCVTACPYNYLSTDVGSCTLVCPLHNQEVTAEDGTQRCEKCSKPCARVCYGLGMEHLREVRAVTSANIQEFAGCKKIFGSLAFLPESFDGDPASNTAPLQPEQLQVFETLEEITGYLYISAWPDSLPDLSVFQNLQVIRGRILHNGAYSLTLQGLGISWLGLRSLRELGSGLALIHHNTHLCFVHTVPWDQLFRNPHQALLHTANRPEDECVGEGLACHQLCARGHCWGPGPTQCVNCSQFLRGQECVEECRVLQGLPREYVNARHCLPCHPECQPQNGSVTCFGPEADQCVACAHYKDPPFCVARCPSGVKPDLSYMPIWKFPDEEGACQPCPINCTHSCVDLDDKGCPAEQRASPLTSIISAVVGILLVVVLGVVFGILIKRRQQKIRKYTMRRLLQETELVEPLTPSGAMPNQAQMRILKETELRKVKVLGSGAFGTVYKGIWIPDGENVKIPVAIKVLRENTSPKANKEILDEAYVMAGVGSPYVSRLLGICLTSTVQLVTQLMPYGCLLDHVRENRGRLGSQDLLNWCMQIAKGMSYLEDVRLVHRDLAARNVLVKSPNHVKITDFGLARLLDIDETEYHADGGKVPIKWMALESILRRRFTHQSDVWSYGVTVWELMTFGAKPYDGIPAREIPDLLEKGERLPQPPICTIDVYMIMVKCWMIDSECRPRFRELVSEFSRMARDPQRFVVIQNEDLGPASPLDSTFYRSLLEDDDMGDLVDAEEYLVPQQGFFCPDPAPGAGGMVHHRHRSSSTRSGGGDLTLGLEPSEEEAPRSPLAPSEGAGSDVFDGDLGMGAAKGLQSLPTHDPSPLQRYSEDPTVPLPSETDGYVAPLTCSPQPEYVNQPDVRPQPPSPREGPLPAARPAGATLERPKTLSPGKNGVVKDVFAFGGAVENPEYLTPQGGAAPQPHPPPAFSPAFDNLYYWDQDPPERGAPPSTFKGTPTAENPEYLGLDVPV
compound,measurement,setting,value
CS(=O)(=O)CCNCc1ccc(-c2ccc3ncnc(Nc4ccc(OCc5cccc(F)c5)c(Cl)c4)c3c2)o1 [lapatinib],concentration at 12 h,"[1]; plasma, patients, median (range), 500 mg BID (n = 5), steady state, read-out: Plasma Cmin",2750 nM
same,concentration at 24 h,"[1]; plasma, 1000 mg, patients, median (range), 1000 mg QD (n = 5), steady state, read-out: Plasma Cmin",1540 nM
same,concentration at 24 h,"[1]; plasma, 1500 mg, patients, median (range), 1500 mg QD (n = 3), steady state, read-out: Plasma Cmin",390 nM
same,concentration at 12 h,"[1]; tumor, patients, median (range), 500 mg BID (n = 5), steady state, read-out: Tumor Cmin",13000 nM
same,concentration at 24 h,"[1]; tumor, 1000 mg, patients, median (range), 1000 mg QD (n = 5), steady state, read-out: Tumor Cmin",2290 nM
same,concentration at 24 h,"[1]; tumor, 1500 mg, patients, median (range), 1500 mg QD (n = 3), steady state, read-out: Tumor Cmin",2270 nM
same,Tumor Cmin,"[1]; patients, median (range), 500 mg BID (n = 5), steady state",12.8 (7.9–31.1) μM
same,"Lap conc, tumor",[1]; subject 5,25.60 µM
same,"Lap conc, tumor",[1]; subject 124,56.02 µM
same,"Lap conc, tumor",[1]; subject 801,1.98 µM
same,"Lap conc, tumor",[1]; subject 803,2.08 µM
same,"Lap conc, tumor",[1]; subject 804,7.90 µM
same,"Lap conc, tumor",[1]; subject 1401,1.02 µM
same,"Lap conc, tumor",[1]; subject 1403,9.08 µM
same,"Lap conc, tumor",[1]; subject 1405,12.76 µM
same,"p-HER2 post-treatment OD, mean",HER2; mean of listed subjects,9.00 OD
same,HER2 phosphorylation in tumor,"HER2; one patient with ABCB1 SNP C3435T, plasma 1 μM, tumor 9 μM",complete inhibition
same,p-HER2 post-treatment OD,"HER2; subject 5, tumor 25.60 µM",10 OD
same,p-HER2 post-treatment OD,"HER2; subject 1405, tumor 12.76 µM",17 OD
same,in vitro IC90 for inhibition of HER2 phosphorylation,HER2 phosphorylation,~0.5 µg/mL
same,IC90,HER2 phosphorylation; read-out: in vitro IC90 for inhibition of HER2 phosphorylation,~900 nM
same,urinary excretion of the oral dose,[2],< 1%
same,plasma protein binding,plasma proteins,> 99%
same,dose recovered in bile,"[3]; bile duct cannulated male rats, within 5 hours after dosing",32%
same,overall recovery of radioactivity (nearly quantitative in feces),"[3]; oral, male Wistar Han rats",90.0%
same,CYP3A induction,CYP3A,no abil it y to induce CYP3A
same,CYP3A4 inhibition,CYP3A4,inhibitory pot ential towards CYP3A4
same,mutagenicity and clastogenicity,[4],non-mutagenic
same,subjects with dose-limiting toxicity (diarrhea),[5]; 900 mg BID,2 of 6
same,incidence of diarrhea,[5]; [9],18-25%
same,incidence of nausea,[5]; [9],< 10%
same,incidence of rash,[5]; [9],< 10%
same,"incidence of gastrointestinal intolerance (nausea, vomiting and diarrhea)",[5]; patients receiving twice daily dosing (900 or 750 mg),~34%
same,"AUC with 900 mg BID compared with 1800 mg once daily, higher",[5]; patients,~ two-fol d
same,fluctuation between peak and trough plasma concentrations at steady state,"[6]; patients, doses up to 1800 mg QD, ref EGF10027 protocol",3 fold
same,Cmin,"[6]; previous clinical studies, 1500 mg QD",1350 nM
same,plasma half-life,"[6]; ref EGF10027 protocol, original text",~14 h
same,IC50,ErbB1 tyrosine kinase,10 nM
same,IC50,ErbB2 tyrosine kinase,9 nM
same,metabolizing CYP enzymes,human CYP450 enzymes,metabolized predominantl y by CYP3A4
same,NOAEL,[7]; female rats,20 mg/kg/day
same,NOAEL,[7]; male rats,60 mg/kg/day
same,generally well tolerated dose,"[7]; rats, up to 13 weeks",≤ 60 mg/kg/day
same,incidence of rash,"[8]; cancer patients, preliminary, ref study EGF10004",12%
same,maximum tolerated dose (not reached at maximum dose given),"[8]; patients, ref preliminary analysis of EGF10004",> 1800 mg/day
same,"frequency of achieving ≥75% inhibition of one of four key biomarkers (p-EGFR, p-ErbB2, p-ERK1/2, p-AKT)","[8]; 500 mg once daily, ref study EGF10004, listed as GW572016",29%
same,"frequency of achieving ≥75% inhibition of one of four key biomarkers (p-EGFR, p-ErbB2, p-ERK1/2, p-AKT)","[8]; 650 mg once daily, ref study EGF10004, listed as GW572016",50%
same,"frequency of achieving ≥75% inhibition of one of four key biomarkers (p-EGFR, p-ErbB2, p-ERK1/2, p-AKT)","[8]; 900 mg once daily, ref study EGF10004, listed as GW572016",44%
same,"frequency of achieving ≥75% inhibition of one of four key biomarkers (p-EGFR, p-ErbB2, p-ERK1/2, p-AKT)","[8]; 1200 mg once daily, ref study EGF10004",75%
same,"frequency of achieving ≥75% inhibition of one of four key biomarkers (p-EGFR, p-ErbB2, p-ERK1/2, p-AKT)","[8]; 1600 mg once daily, ref study EGF10004, listed as GW572016",83%
